Measurements as given in paper PMC13144739, “Global analysis of cancer cell responses to USP9X inhibition” (The EMBO Journal, 2026).

Legend:
[1] = molecular target: T1, USP9X catalytic domain (Homo sapiens, UniProt Q93008); experiment: Ub-Rho cleavage assay; assay type: biochemical; settings: Ub-Rho cleavage, recombinant USP9X catalytic domain (WT)
T1 construct: His/SUMO (pOPIN-S vector) (N, cleaved yes); made in house; host or cells: E. coli BL21
T1 sequence (Q93008 1551-1970): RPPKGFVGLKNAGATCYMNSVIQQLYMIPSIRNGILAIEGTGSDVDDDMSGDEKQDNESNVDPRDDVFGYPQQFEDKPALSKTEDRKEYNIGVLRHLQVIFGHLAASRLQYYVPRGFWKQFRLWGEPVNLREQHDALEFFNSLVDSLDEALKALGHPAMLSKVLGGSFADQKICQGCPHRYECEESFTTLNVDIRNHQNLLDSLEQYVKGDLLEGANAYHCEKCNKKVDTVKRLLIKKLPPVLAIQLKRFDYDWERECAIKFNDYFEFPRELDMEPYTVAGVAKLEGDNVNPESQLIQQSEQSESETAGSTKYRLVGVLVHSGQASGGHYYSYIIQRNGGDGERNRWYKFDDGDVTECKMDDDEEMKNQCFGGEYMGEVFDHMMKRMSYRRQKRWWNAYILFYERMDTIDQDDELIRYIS
Method: The reaction was stopped through the addition of 10 mM citric acid. The assay was performed in 384-well format with a total reaction volume of 16 µL. Data was collected using the ClarioSTAR plate reader (BMG Labtech) at an emission of 535 nm. […] IC50 values presented in our study are the mean of three independent biological repeats unless indicated otherwise.

[2] = system: human dermal fibroblasts (HDF); experiment: IncuCyte live-cell imaging cell death, HDF; assay type: cell-based; settings: 50 µM (Appendix Fig. S4E)
Method: Cells were seeded at varying densities (1000–8000 cells per well) after initial optimisation in a 96-well tissue culture-treated plate (Thermo Fisher Scientific). Cells were incubated o/n, and the next day, inhibitors and controls diluted in cell media were added to the cells to a final volume of 200 μL per well. Cell death was measured using PI (Sigma-Aldrich). Cells were imaged with four images per well every 2 h for up to 96 h using the IncuCyte live-cell analysis system (S3, Sartorius). Cell proliferation data were analysed using Microsoft Excel by normalising confluence to control conditions. For cell killing readouts, the number of PI-positive cells was normalised to the control conditions for each timepoint.

[3] = molecular target: T1, USP9X catalytic domain; experiment: K48-linked di-ubiquitin cleavage assay; assay type: biochemical; settings: reported USP9X inhibitors; Appendix Fig. S1B,E (diUb cleavage 150 µM, Ub-Rho)
Method: For inhibitor activity assays, USP9X catalytic domain (di-ubiquitin cleavage assay: 750 nM, ubiquitin-probe assays: 2.5 µM) was pre-incubated with USP9X inhibitors for 30 min at ambient temperature and subsequently mixed with di-ubiquitin (final concentration 2 µM) in assay buffer (25 mM Tris [pH 8.0], 150 mM NaCl, 10 mM DTT) at pH 8.0 or was mixed with ubiquitin-propargylamide (Ub-PA)/ubiquitin-vinyl sulfonate (Ub-VS) probes at a final concentration of 10 µM in assay buffer. For both assays, the mixture was incubated over a time course, and the reaction was stopped by mixing samples with 2× LDS sample buffer (Invitrogen) supplemented with 3% (v/v) 2-mercaptoethanol. All protein samples were run on a 4–12% Bis-Tris SDS-PAGE gradient gel (Invitrogen) for 60 min at 140 V. The gel was stained with InstantBlue® (Abcam) and imaged.

[4] = molecular target: T1, USP9X catalytic domain; experiment: SPR binding assay
Method: Next, the sample was desalted using PD midiTrap™ G-25 (GE Healthcare) columns following the manufacturer’s instructions and was further purified by SEC, concentrated, and stored at -80 °C. Enzyme activity was tested in a ubiquitin-probe assay. SPR experiments were performed on a Biacore 8 K+ instrument (Cytiva). USP9X catalytic domain with a C-terminal AviTag™ was immobilised in 10 mM HEPES, 150 mM NaCl at pH 7.4 on a Series S Sensor Chip SA (Cytiva) by coupling. […] Running buffer was supplemented with 2% (v/v) DMSO. Multi-cycle kinetics were performed with 120 s associations and 600 s dissociations at 30 µL/min with no further regeneration. Binding constants were determined in Biacore Insight evaluation software (v5.0.18) at steady state, taking the median response over a 5-s window beginning at 10 s before the end of the association phase. Final KD values are the mean of three independent experiments.

IC50 [1] [µM]	Kd ([4]; SPR, steady state, mean of three repeats, read-out: KD (steady state affinity)) [µM]	SPR kinetic fitting (on-rate/off-rate) ([4]; compared with the WEHI compound series / WEHI-092)	SMILES	toxicity to HDFs [2]	effects on the purified USP9X catalytic domain [3]
> 100	–	–	O=S(=O)(c1ccc2c(c1)OCCO2)N1CCN(c2ccc(-c3ccccc3)nn2)CC1 [WEHI-871]	–	–
–	–	–	CCC[C@H](NC(=O)/C(C#N)=C/c1cccc(Br)n1)c1ccccc1 [WP1130]	cytotoxic	no or weak effects
4.3	3.51 ± 0.58	much faster off-rate	O=C(c1ccc2[nH]ccc2c1)N1CCN(S(=O)(=O)c2ccc3c(c2)OCCO3)CC1 [WEHI-680]	–	–
–	–	–	CCCC(NC(=O)/C(C#N)=C/c1nc(Cl)ccc1Cl)c1ccc(OCCN2CCOCC2)cc1 (centres unmarked) [EOAI3402143]	cytotoxic	no or weak effects
